The test concerns the target T1, human IL-17A (Homo sapiens, UniProt Q16552).
T1 construct: host or cells: added to BJ human fibroblasts (ATCC CRL2522)
Description: BJ human fibroblast cell assay, IL-17A stimulated GRO-α production. The note with it: BJ human fibroblast cells, 1 ng/ml human IL-17A. The format is cell-based. The source says: For inhibitor screen, human BJ fibroblast cells (ATCC CRL2522) (American Type Culture Collection, VA) were used. For mouse cell based assay MLE-12 mouse epithelial cells (ATCC CRL2110) were used. Both cell lines were maintained in ATCC recommended media.

Results on six molecules are retold here after PMC4869123 (Scientific Reports, 2016).

pIC50: −log10 of the molar value. *1 amine or outer side, *2 acyl side, *3 side chain or, on linkers, in order; H or OH if unused. Where a SMILES comes first, the peptide text is derived from it. Bridges are numbered along the chain shown (N, C = ends). Roman numbers before positions name the chains, in order. [ ]: non-standard residue; d: D form. X1 = O=C(CCOCCOCCOCCOCCOCCOCCOCCOCCOCCOCCOCCOCCOCCOCCOCCOCCOCCOCCOCCOCCOCCC(=O)[*:2])[*:1]; CO(CH2CH2O)5CH2CH2CO = O=C(CCOCCOCCOCCOCCOCCC(=O)[*:2])[*:1]; Lys(Me2) = CN(C)CCCC[C@H](N)C(=O)O

As usually defined, the pIC50 is −log10 of the IC50, conventionally taken in molar units.

T1 sequence (Q16552 24-155): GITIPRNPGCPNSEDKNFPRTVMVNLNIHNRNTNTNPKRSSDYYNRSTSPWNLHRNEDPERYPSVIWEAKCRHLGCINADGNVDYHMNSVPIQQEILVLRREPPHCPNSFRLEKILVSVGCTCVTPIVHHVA

`CC[C@H](C)[C@H](NC(C)=O)C(=O)N[C@H](C(=O)N[C@H](C(=O)N[C@H](C(=O)N[C@H](C(=O)N1CCC[C@H]1C(=O)N[C@@H](C)C(=O)N[C@@H](CC(=O)O)C(=O)N[C@@H](CC(C)C)C(=O)N[C@@H](Cc1c[nH]c2ccccc12)C(=O)N[C@@H](CC(=O)O)C(=O)N[C@@H](Cc1c[nH]c2ccccc12)C(=O)N[C@H](C(=O)N[C@@H](CC(N)=O)C(=O)N[C@@H](CCCCN(C)C)C(=O)N[C@@H](CCCCNC(=O)CCOCCOCCOCCOCCOCCOCCOCCOCCOCCOCCOCCOCCOCCOCCOCCOCCOCCOCCOCCOCCOCCC(=O)NCCCC[C@H](NC(=O)[C@H](CCCCN(C)C)NC(=O)[C@H](CC(N)=O)NC(=O)[C@@H](NC(=O)[C@H](Cc1c[nH]c2ccccc12)NC(=O)[C@H](CC(=O)O)NC(=O)[C@H](Cc1c[nH]c2ccccc12)NC(=O)[C@H](CC(C)C)NC(=O)[C@H](CC(=O)O)NC(=O)[C@H](C)NC(=O)[C@@H]1CCCN1C(=O)[C@@H](NC(=O)[C@@H](NC(=O)[C@@H](NC(=O)[C@@H](NC(=O)[C@@H](NC(C)=O)[C@@H](C)CC)[C@@H](C)O)C(C)C)[C@@H](C)O)[C@@H](C)CC)[C@@H](C)CC)C(N)=O)C(N)=O)[C@@H](C)CC)[C@@H](C)CC)[C@@H](C)O)C(C)C)[C@@H](C)O` [Compound 47] (I: Ac-ITVTIPADLWDWIN[Lys(Me2)]K-NH2 / II: Ac-ITVTIPADLWDWIN[Lys(Me2)]K-NH2; linker I:16-II:16 via X1) showed a pIC50 of 7.80. The molecule `CC[C@H](C)[C@H](NC(C)=O)C(=O)N[C@H](C(=O)N[C@H](C(=O)N[C@H](C(=O)N[C@H](C(=O)N1CCC[C@H]1C(=O)N[C@@H](CCCCNC(=O)CCOCCOCCOCCOCCOCCC(=O)NCCCC[C@H](NC(=O)[C@@H]1CCCN1C(=O)[C@@H](NC(=O)[C@@H](NC(=O)[C@@H](NC(=O)[C@@H](NC(=O)[C@@H](NC(C)=O)[C@@H](C)CC)[C@@H](C)O)C(C)C)[C@@H](C)O)[C@@H](C)CC)C(=O)N[C@@H](CC(=O)O)C(=O)N[C@@H](CC(C)C)C(=O)N[C@@H](Cc1c[nH]c2ccccc12)C(=O)N[C@@H](CC(=O)O)C(=O)N[C@@H](Cc1c[nH]c2ccccc12)C(=O)N[C@H](C(=O)N[C@@H](CC(N)=O)C(=O)N[C@@H](CCCCN(C)C)C(N)=O)[C@@H](C)CC)C(=O)N[C@@H](CC(=O)O)C(=O)N[C@@H](CC(C)C)C(=O)N[C@@H](Cc1c[nH]c2ccccc12)C(=O)N[C@@H](CC(=O)O)C(=O)N[C@@H](Cc1c[nH]c2ccccc12)C(=O)N[C@H](C(=O)N[C@@H](CC(N)=O)C(=O)N[C@@H](CCCCN(C)C)C(N)=O)[C@@H](C)CC)[C@@H](C)CC)[C@@H](C)O)C(C)C)[C@@H](C)O` [Compound 42] (I: Ac-ITVTIPKDLWDWIN[Lys(Me2)]-NH2 / II: Ac-ITVTIPKDLWDWIN[Lys(Me2)]-NH2; linker I:7-II:7 via CO(CH2CH2O)5CH2CH2CO) showed a pIC50 of 7.62. As for `CC[C@H](C)[C@H](NC(C)=O)C(=O)N[C@H](C(=O)N[C@H](C(=O)N[C@@H](CCCCNC(=O)CCOCCOCCOCCOCCOCCOCCOCCOCCOCCOCCOCCOCCOCCOCCOCCOCCOCCOCCOCCOCCOCCC(=O)NCCCC[C@H](NC(=O)[C@@H](NC(=O)[C@@H](NC(=O)[C@@H](NC(C)=O)[C@@H](C)CC)[C@@H](C)O)C(C)C)C(=O)N[C@H](C(=O)N1CCC[C@H]1C(=O)N[C@@H](C)C(=O)N[C@@H](CC(=O)O)C(=O)N[C@@H](CC(C)C)C(=O)N[C@@H](Cc1c[nH]c2ccccc12)C(=O)N[C@@H](CC(=O)O)C(=O)N[C@@H](Cc1c[nH]c2ccccc12)C(=O)N[C@H](C(=O)N[C@@H](CC(N)=O)C(=O)N[C@@H](CCCCN(C)C)C(N)=O)[C@@H](C)CC)[C@@H](C)CC)C(=O)N[C@H](C(=O)N1CCC[C@H]1C(=O)N[C@@H](C)C(=O)N[C@@H](CC(=O)O)C(=O)N[C@@H](CC(C)C)C(=O)N[C@@H](Cc1c[nH]c2ccccc12)C(=O)N[C@@H](CC(=O)O)C(=O)N[C@@H](Cc1c[nH]c2ccccc12)C(=O)N[C@H](C(=O)N[C@@H](CC(N)=O)C(=O)N[C@@H](CCCCN(C)C)C(N)=O)[C@@H](C)CC)[C@@H](C)CC)C(C)C)[C@@H](C)O` [Compound 41] (I: Ac-ITVKIPADLWDWIN[Lys(Me2)]-NH2 / II: Ac-ITVKIPADLWDWIN[Lys(Me2)]-NH2; linker I:4-II:4 via X1), the figure is 7.82; as for `CC[C@H](C)[C@H](NC(C)=O)C(=O)N[C@H](C(=O)N[C@H](C(=O)N[C@H](C(=O)N[C@H](C(=O)N1CCC[C@H]1C(=O)N[C@@H](C)C(=O)N[C@@H](CC(=O)O)C(=O)N[C@@H](CC(C)C)C(=O)N[C@@H](Cc1c[nH]c2ccccc12)C(=O)N[C@@H](CC(=O)O)C(=O)N[C@@H](Cc1c[nH]c2ccccc12)C(=O)N[C@H](C(=O)N[C@@H](CC(N)=O)C(=O)N[C@@H](CCCCN(C)C)C(=O)N[C@@H](CCCCNC(=O)CCOCCOCCOCCOCCOCCC(=O)NCCCC[C@H](NC(=O)[C@H](CCCCN(C)C)NC(=O)[C@H](CC(N)=O)NC(=O)[C@@H](NC(=O)[C@H](Cc1c[nH]c2ccccc12)NC(=O)[C@H](CC(=O)O)NC(=O)[C@H](Cc1c[nH]c2ccccc12)NC(=O)[C@H](CC(C)C)NC(=O)[C@H](CC(=O)O)NC(=O)[C@H](C)NC(=O)[C@@H]1CCCN1C(=O)[C@@H](NC(=O)[C@@H](NC(=O)[C@@H](NC(=O)[C@@H](NC(=O)[C@@H](NC(C)=O)[C@@H](C)CC)[C@@H](C)O)C(C)C)[C@@H](C)O)[C@@H](C)CC)[C@@H](C)CC)C(N)=O)C(N)=O)[C@@H](C)CC)[C@@H](C)CC)[C@@H](C)O)C(C)C)[C@@H](C)O` [Compound 46] (I: Ac-ITVTIPADLWDWIN[Lys(Me2)]K-NH2 / II: Ac-ITVTIPADLWDWIN[Lys(Me2)]K-NH2; linker I:16-II:16 via CO(CH2CH2O)5CH2CH2CO), 6.24; as for `CC[C@H](C)[C@H](NC(=O)CCOCCOCCOCCOCCOCCOCCOCCOCCOCCOCCOCCOCCOCCOCCOCCOCCOCCOCCOCCOCCOCCC(=O)N[C@H](C(=O)N[C@H](C(=O)N[C@H](C(=O)N[C@H](C(=O)N[C@H](C(=O)N1CCC[C@H]1C(=O)N[C@@H](C)C(=O)N[C@@H](CC(=O)O)C(=O)N[C@@H](CC(C)C)C(=O)N[C@@H](Cc1c[nH]c2ccccc12)C(=O)N[C@@H](CC(=O)O)C(=O)N[C@@H](Cc1c[nH]c2ccccc12)C(=O)N[C@H](C(=O)N[C@@H](CC(N)=O)C(=O)N[C@@H](CCCCN(C)C)C(N)=O)[C@@H](C)CC)[C@@H](C)CC)[C@@H](C)O)C(C)C)[C@@H](C)O)[C@@H](C)CC)C(=O)N[C@H](C(=O)N[C@H](C(=O)N[C@H](C(=O)N[C@H](C(=O)N1CCC[C@H]1C(=O)N[C@@H](C)C(=O)N[C@@H](CC(=O)O)C(=O)N[C@@H](CC(C)C)C(=O)N[C@@H](Cc1c[nH]c2ccccc12)C(=O)N[C@@H](CC(=O)O)C(=O)N[C@@H](Cc1c[nH]c2ccccc12)C(=O)N[C@H](C(=O)N[C@@H](CC(N)=O)C(=O)N[C@@H](CCCCN(C)C)C(N)=O)[C@@H](C)CC)[C@@H](C)CC)[C@@H](C)O)C(C)C)[C@@H](C)O` [Compound 39] (I: ITVTIPADLWDWIN[Lys(Me2)]-NH2 / II: ITVTIPADLWDWIN[Lys(Me2)]-NH2; linker I:N-II:N via X1), 9.13. In the case of Ac-IHVTIPADLWDWI-NH2 [Compound 36], the pIC50 is 6.74.
